Experiments:
[1] = target: T1, STING (Stimulator of Interferon Genes) (Mus musculus, UniProt Q3TBT3); assay: native PAGE gel shift; type: binding; conditions: pH 7.5, 60 mM KCl, 5 mM Mg(OAc)2; labelled compound; 4-100 μM protein
T1 sequence (Q3TBT3 139-378 limits assumed): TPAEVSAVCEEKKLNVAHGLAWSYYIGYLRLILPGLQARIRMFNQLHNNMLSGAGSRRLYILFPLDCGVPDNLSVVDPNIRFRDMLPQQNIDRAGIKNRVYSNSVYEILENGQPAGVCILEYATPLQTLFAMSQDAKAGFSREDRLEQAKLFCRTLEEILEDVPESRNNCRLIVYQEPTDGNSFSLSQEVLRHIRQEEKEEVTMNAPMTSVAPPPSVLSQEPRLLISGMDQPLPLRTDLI

Ec-CdnD02 (CD-NTase038) = Ec-CdnD02 (CD-NTase038) (Enterobacter hormaechei, UniProt P0DSP4); conditions: with GTP; pH 9.4, 5 mM Mg(OAc)2, 37 °C; product cAAG
Rm-CdnE = target: T2, Rm-CdnE (Rhodothermus marinus, UniProt G2SLH8); assay: X-ray crystal structure; type: binding; conditions: with Upnpp and MgCl2; nonhydrolyzable substrate analogue
T2 sequence (G2SLH8 1-288): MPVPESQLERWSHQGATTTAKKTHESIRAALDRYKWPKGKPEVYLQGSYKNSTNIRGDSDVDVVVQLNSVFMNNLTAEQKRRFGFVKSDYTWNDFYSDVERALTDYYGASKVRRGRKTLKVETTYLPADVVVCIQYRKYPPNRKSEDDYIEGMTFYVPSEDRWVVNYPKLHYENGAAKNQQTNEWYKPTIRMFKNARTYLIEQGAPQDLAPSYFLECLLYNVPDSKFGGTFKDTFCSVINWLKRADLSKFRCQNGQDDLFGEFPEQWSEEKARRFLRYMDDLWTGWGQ

Em-CdnE = target: T3, Em-CdnE (Elizabethkingia meningoseptica, UniProt P0DSP2); assay: X-ray crystal structure; type: binding
T3 sequence (P0DSP2 1-292): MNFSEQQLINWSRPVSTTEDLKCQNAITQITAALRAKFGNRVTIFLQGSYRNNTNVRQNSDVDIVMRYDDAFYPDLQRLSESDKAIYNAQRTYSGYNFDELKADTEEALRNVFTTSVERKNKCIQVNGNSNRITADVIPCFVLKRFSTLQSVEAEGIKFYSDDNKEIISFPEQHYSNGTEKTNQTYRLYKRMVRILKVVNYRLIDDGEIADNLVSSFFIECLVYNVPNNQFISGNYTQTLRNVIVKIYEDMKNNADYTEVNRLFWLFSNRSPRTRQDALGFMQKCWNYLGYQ

Chain of Ec-CdnD02 (CD-NTase038) (P0DSP4 whole entry): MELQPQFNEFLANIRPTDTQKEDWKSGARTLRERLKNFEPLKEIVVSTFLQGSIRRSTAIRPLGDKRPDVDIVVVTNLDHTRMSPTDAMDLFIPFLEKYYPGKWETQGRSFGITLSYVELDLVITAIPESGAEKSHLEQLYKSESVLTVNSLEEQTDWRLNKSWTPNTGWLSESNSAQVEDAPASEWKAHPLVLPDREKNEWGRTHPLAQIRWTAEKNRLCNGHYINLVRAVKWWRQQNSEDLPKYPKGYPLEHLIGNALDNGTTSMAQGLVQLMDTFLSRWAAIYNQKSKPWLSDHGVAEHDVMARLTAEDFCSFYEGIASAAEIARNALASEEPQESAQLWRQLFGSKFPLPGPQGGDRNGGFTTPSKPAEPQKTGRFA

Nc1nc2c(ncn2[C@@H]2O[C@@H]3COP(=O)(O)O[C@H]4[C@@H](O)[C@H](n5cnc6c(N)ncnc65)O[C@@H]4COP(=O)(O)O[C@H]3[C@H]2O)c(=O)[nH]1 [3′3′ cGAMP]
native PAGE gel shift [1]: STING bound to all four cyclic dipurine molecules with high affinity

Nc1ncnc2c1ncn2[C@@H]1O[C@H](COP(=O)(O)OP(=O)(O)OP(=O)(O)O)[C@@H](O)[C@H]1O [ATP]
radiolabelled NTP, silica TLC (Ec-CdnD02 (CD-NTase038)): ATP and GTP were necessary and sufficient for product formation

Nc1ncnc2c1ncn2[C@@H]1O[C@H](COP(=O)(O)CP(=O)(O)OP(=O)(O)O)[C@@H](O)[C@H]1O [Apcpp]
X-ray crystal structure (Rm-CdnE): structure of Rm-CdnE in complex with nonhydrolyzable ATP and UTP
X-ray crystal structure (Em-CdnE; with GTP and Mg2+, nonhydrolyzable substrate analogue): Crystal structure of Em-CdnE in complex with GTP and nonhydrolyzable ATP

Nc1nc2c(ncn2[C@@H]2O[C@H](COP(=O)(O)OP(=O)(O)OP(=O)(O)O)[C@@H](O)[C@H]2O)c(=O)[nH]1 [GTP]
X-ray crystal structure (Em-CdnE; with Apcpp and Mg2+): Crystal structure of Em-CdnE in complex with GTP and nonhydrolyzable ATP

Nc1nc2c(ncn2[C@@H]2O[C@@H]3COP(=O)(O)O[C@H]4[C@@H](O)[C@H](n5cnc6c(=O)[nH]c(N)nc65)O[C@@H]4COP(=O)(O)O[C@H]3[C@H]2O)c(=O)[nH]1 [c-di-GMP]
native PAGE gel shift [1]: STING bound to all four cyclic dipurine molecules with high affinity
